{
  "source": "patent US10286038B2",
  "about": "“Lysosome membrane protein 2 (LIMP-2) based peptides and related uses” (Northwestern University, priority 2016, dated 2019)",
  "key": {"[1]": {"target": "T1, recombinant GC (Cerezyme) (Homo sapiens, UniProt P04062, R534H)", "T1 construct": "purchased Genzyme Therapeutics, Boston, USA", "T1 sequence (P04062 40-536 R534H)": "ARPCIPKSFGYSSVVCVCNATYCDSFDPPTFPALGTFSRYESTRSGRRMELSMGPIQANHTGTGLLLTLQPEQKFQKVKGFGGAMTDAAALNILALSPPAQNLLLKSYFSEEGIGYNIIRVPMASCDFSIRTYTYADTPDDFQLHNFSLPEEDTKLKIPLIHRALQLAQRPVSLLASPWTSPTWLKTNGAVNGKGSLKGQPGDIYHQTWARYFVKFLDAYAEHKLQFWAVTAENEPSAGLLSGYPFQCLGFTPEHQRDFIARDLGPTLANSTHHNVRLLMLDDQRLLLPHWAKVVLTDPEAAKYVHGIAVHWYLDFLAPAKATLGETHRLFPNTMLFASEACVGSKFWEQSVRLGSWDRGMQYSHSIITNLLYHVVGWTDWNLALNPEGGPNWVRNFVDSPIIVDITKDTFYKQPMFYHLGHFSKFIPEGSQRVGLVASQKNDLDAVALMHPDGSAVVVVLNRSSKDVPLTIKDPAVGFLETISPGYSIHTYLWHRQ", "assay": "peptide pulldown of recombinant GC", "format": "binding", "conditions": "biotinylated peptide, tenfold molar amount, neutral pH, streptavidin beads", "description": "Expression plasmids of LIMP-2 and human GC constructs were generated as described previously (1). For Western blotting nitrocellulose or PVDF membranes were used. EndoH/PNGaseF digests were performed according to manufacturer's instructions (New England Biolabs, Ipswich, USA). For co-immunoprecipitation experiments magnetic agarose G beads (Thermo Fisher Scientific, Waltham, USA) were utilized. Immunofluorescence studies were performed in cells as previously described (1, 3). Cellular co-localization of two proteins was determined by the Pearson's Index (35). Enzyme activity assays of cell lysates or recombinant protein were measured at acid pH using absorbent and fluorescent artificial substrates. For peptide studies, peptides were N-terminally tagged with biotin. If not stated otherwise, recombinant enzyme was incubated with a tenfold higher molarity of peptides. Conditions for pulldown experiments were kept at neutral pH. Protein modelling, molecular analyses, graphics and animations were performed with the UCSF Chimera package.\nAll peptides were purchased from jpt Peptide Technologies (Berlin, GER). […] The concentration of the peptides as well as the recombinant proteins was determined spectroscopically (Nanodrop 2000c; Thermo Fisher Scientific, Waltham, USA). […]"}, "[2]": {"target": "T2, recombinant α-mannosidase (LAMAN) (Homo sapiens, UniProt O00754)", "T2 construct": "purchased Zymenex, Hillerod, DK", "T2 sequence (O00754 50-1011)": "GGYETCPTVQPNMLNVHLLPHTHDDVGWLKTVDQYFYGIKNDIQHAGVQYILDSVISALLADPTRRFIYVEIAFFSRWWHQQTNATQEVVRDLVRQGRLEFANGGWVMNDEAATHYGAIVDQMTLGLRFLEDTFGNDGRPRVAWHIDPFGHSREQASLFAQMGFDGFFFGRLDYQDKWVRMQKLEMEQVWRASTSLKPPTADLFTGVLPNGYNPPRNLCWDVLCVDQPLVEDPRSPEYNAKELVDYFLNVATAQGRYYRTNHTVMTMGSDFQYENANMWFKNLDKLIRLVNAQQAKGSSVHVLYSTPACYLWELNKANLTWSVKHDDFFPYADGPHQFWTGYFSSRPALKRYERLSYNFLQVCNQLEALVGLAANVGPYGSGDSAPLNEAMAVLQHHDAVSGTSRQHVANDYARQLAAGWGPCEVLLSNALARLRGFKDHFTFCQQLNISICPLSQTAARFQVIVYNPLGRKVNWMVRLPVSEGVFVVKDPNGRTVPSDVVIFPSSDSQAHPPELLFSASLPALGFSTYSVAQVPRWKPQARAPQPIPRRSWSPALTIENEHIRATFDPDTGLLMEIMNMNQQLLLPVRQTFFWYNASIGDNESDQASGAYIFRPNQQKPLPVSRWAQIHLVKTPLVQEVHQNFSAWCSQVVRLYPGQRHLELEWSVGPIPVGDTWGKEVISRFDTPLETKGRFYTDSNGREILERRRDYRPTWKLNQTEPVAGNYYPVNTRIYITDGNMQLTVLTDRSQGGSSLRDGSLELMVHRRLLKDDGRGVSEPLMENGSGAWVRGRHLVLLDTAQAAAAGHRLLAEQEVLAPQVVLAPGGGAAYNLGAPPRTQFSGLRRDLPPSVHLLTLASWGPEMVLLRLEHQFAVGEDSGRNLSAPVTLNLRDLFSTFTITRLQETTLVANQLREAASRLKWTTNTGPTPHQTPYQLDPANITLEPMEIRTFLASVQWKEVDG", "assay": "recombinant LAMAN activity assay", "format": "biochemical", "conditions": "1×-10× molar excess, acid pH", "source_text": "To determine the enzymatic activity of the recombinant enzymes, lyophilized enzymes were reconstituted in the NaPi buffer described above. The lyophilized samples of wild-type GC (Cerezyme®) and the custom-made recombinant N307S mutant enzyme contain 0.01% polysorbate 80 (Tween 80) (see prescription information for Cerezyme® at the website for Cerezyme®). As indicated in our experiments, the concentration of the detergent is sufficient to support active GC enzyme and to perform the in vitro GC activity assays without adding further detergents to the reaction mix. For enzyme activity assays of recombinant proteins, 0.1-0.2 nmol of GC (Cerezyme®; N370S) and LAMAN were used in the absence or presence of 10× the molar amount of LIMP-2-derived peptides (Table 1) or LIMP-2 ectodomain (1-2 nmol) (Table 3).\nAll activity assays were performed at acid pH."}},
  "data": [
    {"substance": "Biotin-Ttds-LREIIEAMLKAYQQKLFVTHTVDE [helix 5 peptide]", "values": [
      {"measurement": "co-precipitation of recombinant GC", "setting": "[1]", "result": "specifically co-precipitated"},
      {"measurement": "effect on enzymatic activity of recombinant LAMAN", "setting": "[2]", "result": "No effect"}
    ]}
  ]
}
